Experimental findings from patent publication US20250057909A1, “NOVEL USE OF ALANYL-GLUTAMINE AND OPHTHALMIC COMPOSITION COMPRISING ALANYL-GLUTAMINE” (SEINDA PHARMACEUTICAL GUANGZHOU CORPORATION, priority 2021, published 2025) are described below.

The subject of one data set is corneal cells. The data set can be described thus: Vitro model of corneal ulcer: growth of corneal cells in culture in vitro. Type of data set: cell-based, ICR mice. Conditions: cornea of immunised mice co-cultured with autologous leukocytes. As to the method: The rabbit corneas were taken and cut into pieces, 5-10 times volume of 5% triton solution was added and homogenized until there were no lumpy particles, then centrifuged at 3000 r/min for 10 min, and the supernatant was taken. 5 ml of the supernatant was taken and mixed with 5 ml of complete Freund's adjuvant to prepare a mixed solution for later use.
SPF grade ICR mice were divided into normal group, immune group, and cyclophosphamide group, 10 mice/group. The normal group received subcutaneous injection of 0.5 ml of physiological saline per mouse; Each mouse in the immune group and cyclophosphamide group was subcutaneously injected with the mixed solution+physiological saline, the mixed solution+cyclophosphamide 300 mg/kg respectively, and the injection sites were not overlapped; Injection was performed once every other day for a total of 10 times. 3 days after the last injection, the mice were euthanized using the bloodletting method, and the eyeballs were removed and cut into pieces under sterile conditions. At the same time, the cornea and the leukocytes separated from autologous blood were co-cultured in a 24-well culture plate.

The next data set deals with guinea pig skin. The data set can be described thus: Skin allergy test.
[1] abbreviates: 1 h after challenge and drug removal.
Where [2] appears, read: 24 h after challenge and drug removal.
Where [3] appears, read: 48 h after challenge and drug removal.

The structures appear in SMILES notation. Marks after values point to notes of the source that are not given here.

As for `O=P1(N(CCCl)CCCl)NCCCO1` (stereo not shown) [cyclophosphamide], in the data set on corneal cells (Grow time 72 h), the “Growth of corneal cells in culture in vitro, Number” value stood at 8 and the “Growth of corneal cells in culture in vitro, Percentage % (growth rate)” value is given as 16.0** %. Also, in the data set on corneal cells (Grow time 120 h), the “Growth of corneal cells in culture in vitro, Number” value is given as 11 and the “Growth of corneal cells in culture in vitro, Percentage % (growth rate)” value is 22.0** %.

`O=[N+]([O-])c1ccc(Cl)c([N+](=O)[O-])c1` [2,4-dinitrochlorobenzene]: in the data set with guinea pig skin (setting [1]), the Average score was found to be 2.2, the “Number of allergic animals” value turned out to be 10 and the Total score was 22. Further, in the data set with guinea pig skin (setting [2]), the Average score was 1.7, the “Number of allergic animals” value is given as 10 and the Total score is on record as 17. In the data set with guinea pig skin (setting [3]), the Average score was found to be 1.0, the “Number of allergic animals” value is 10 and the Total score was determined as 10.
